Results from patent US12297296B2, “Nano small peptide and its use in preparation of drugs for treating and preventing fundus vascular diseases” (FUTU Biotech Co., Ltd., priority 2021, dated 2025).
Where a SMILES comes first, the peptide text is derived from it. [ ]: non-standard residue; d: D form. The star is where a group is joined. ξ: configuration not given here. Palmitoyl = CCCCCCCCCCCCCCCC(=O)*; ξF = NC(Cc1ccccc1)C(=O)O

Columns and labels:
sSema4D [1] = molecular target: T1, sSema4D (Mus musculus, UniProt O09126); assay: sSema4D concentration in a simple medium system (ELISA); assay type: biochemical; set-up: the free Sema4D protein after enzyme cleavage of Sema4D, that is, the sSema4D protein purchased from R&D Systems Company; purchased R&D Systems; details: for sSema4D concentration: sSema4D 1600 ng/mL, peptides 20 μM, antibody 2 μg/μL
T1 sequence (O09126 24-733 limits assumed): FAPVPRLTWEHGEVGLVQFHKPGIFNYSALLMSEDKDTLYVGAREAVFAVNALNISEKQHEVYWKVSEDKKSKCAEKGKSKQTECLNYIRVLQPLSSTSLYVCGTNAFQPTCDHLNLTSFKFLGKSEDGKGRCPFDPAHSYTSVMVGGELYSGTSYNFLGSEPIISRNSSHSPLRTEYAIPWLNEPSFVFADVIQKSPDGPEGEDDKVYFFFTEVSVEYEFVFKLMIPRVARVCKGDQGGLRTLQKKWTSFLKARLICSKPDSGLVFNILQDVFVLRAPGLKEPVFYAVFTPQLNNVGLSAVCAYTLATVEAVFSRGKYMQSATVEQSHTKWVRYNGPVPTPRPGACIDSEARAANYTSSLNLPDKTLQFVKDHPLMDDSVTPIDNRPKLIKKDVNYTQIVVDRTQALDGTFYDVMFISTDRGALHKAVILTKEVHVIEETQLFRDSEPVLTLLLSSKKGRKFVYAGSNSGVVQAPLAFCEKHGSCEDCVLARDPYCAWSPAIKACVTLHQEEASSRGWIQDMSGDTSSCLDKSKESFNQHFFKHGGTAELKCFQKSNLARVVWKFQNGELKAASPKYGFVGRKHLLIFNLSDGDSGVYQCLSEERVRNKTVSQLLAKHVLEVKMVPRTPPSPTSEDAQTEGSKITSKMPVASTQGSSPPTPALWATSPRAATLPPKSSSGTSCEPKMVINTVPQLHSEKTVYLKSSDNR
Description: The nano small peptides FH, FG, DMSO, and Sema4D neutralizing antibody (BMA-12) were added to the medium (the concentration of sSema4D in the medium was 1600 ng/mL) to ensure that the final concentration of FH and FG was 20 μM, and the final concentration of the Sema4D neutralizing antibody (BMA-12) (BMA-12, i.e., anti-Sema4D) was 2 μg/μL, an equal volume of DMSO was then added as a control, and culture plates were set still at 37° C. for 12, 24, 36, and 48 h, and the culture medium was collected, and the expression of Sema4D protein in the supernatant was detected using an ELISA kit (Shanghai Yuanmu Biotechnology Co., Ltd.).

sSema4D [2] = molecular target: T1, sSema4D; assay: ELISA of sSema4D in vitreous humor after eye drops; assay type: in vivo; set-up: release and collect the vitreous humor; from tissue; host or cells: vitreous humor of C57 mice; details: C57 mice, 10 μL of 20 μM eye drops, morning and evening, 3 days
Text: In this example, 8-week-old C57 male mice were used, with ten data points in each group, and each data point was the average of the experimental results of 5 mice.
The water on the eyeballs was then removed with filter paper to release and collect the vitreous humor. ELISA kit (Shanghai Yuanmu Biotechnology Co., Ltd.) was used to detect the expression of sSema4D protein in vitreous humor.
Control group was instilled with the same volume of PBS solution; vehicle group was instilled the same volume of artificial tears (Systane).

[3] = system: endothelial cells (primary endothelial cells of mouse brain microvessels); assay: CCK8 cytotoxicity assay; assay type: cell-based; details: 20 μM; 12, 14, and 36 h
OIR model mice = assay: Fundus angiogenesis in OIR model, Isolectin B4 confocal detection; assay type: in vivo, mouse; details: for percentage of abnormal blood vessels in the total retinal area (proportion of new blood vessels): 2 nmol injected into the vitreous on day 12, read on day 17
Description: Treatment group (OIR): After giving birth, 3-4 month old C57BL/6 mother mice were placed in an oxygen chamber with 75% oxygen together with 7 day old young mice, and the young mice and the mother mice were taken out on the 12th day of birth of the young mice. Immediately after the young mice were anesthetized, 2 nmol of FH, 2 nmol of FG, and 1 μg of Sema4D neutralizing antibody (BMA-12) (BMA-12, i.e., anti-Sema4D) were injected into the vitreous, and an equal volume of DMSO was used as a control. The young mice were then further raised in normal air for 5 days; the young mice were anesthetized on the 17th day of birth, and after cardiac perfusion with normal saline, the eyeballs were separated and then fixed, stained with Isolectin B4 overnight at 4° C., flatly spread on a glass slide, and photographed.
Control group (Normal): Young mice, grown with normoxia, were anesthetized on the 17th day of birth. After cardiac perfusion with normal saline, the eyeballs were taken out, and the retinas were peeled off and then fixed with 4% paraformaldehyde, stained with Isolectin B4 at 4° C. overnight, flatly spread on a glass slide, and photographed.
The results are shown in A in FIGS. 4A and 4B. Laser confocal was carried out to detect retinal angiogenesis, and ImageJ was carried out to calculate the ratio of retinal neovascularization clusters to the entire retinal area, that is, the proportion of new blood vessels. […] It can be seen from FIG. 4A that the treatment effect of FH is the best.

[4] = system: primary mouse brain microvascular endothelial cells; assay: Endothelial cell migration (transwell experiment); assay type: cell-based; details: 20 μM, 24 h; for sSema4D-induced endothelial cell migration: sSema4D 1600 ng/mL
Description: The primary mouse brain microvascular endothelial cells were starved with 0.5% ECM for 4 to 6 h. The mouse brain microvascular endothelial cells were seeded in the upper layer of a 24-well transwell chamber (8 μm). 1% ECM medium containing FH (20 μM), FG (20 μM), and Sema4D neutralizing antibody (BMA-12) (2 μg/μL) (the concentration of sSema4D in the medium is 1600 ng/mL) was added to the lower chamber, and an equal volume of DMSO was added as control. The cells were incubated in a 5% CO2 incubator at 37° C. for 24 h. 24 h later, the cells on the bottom of the chamber were fixed with 4% paraformaldehyde and stained with crystal violet, and the endothelial cells that penetrated to the bottom of the chamber were counted under a microscope.

Row | SMILES | sSema4D concentration (sSema4D [1]; 24 h) | sSema4D concentration (sSema4D [1]; 36 h) | effect on sSema4D concentration compared with FG (sSema4D [1]; within the same action time) | expression of sSema4D protein in the vitreous humor (sSema4D [2]) | toxic effects on endothelial cells [3] | percentage of abnormal blood vessels in the total retinal area (proportion of new blood vessels) (OIR model mice) | treatment effect on fundus angiogenesis compared with Sema4D neutralizing antibody (BMA-12, 1 μg) (OIR model mice; 2 nmol intravitreal) | treatment effect on fundus angiogenesis, ranking among treatments (FIG. 4A) (OIR model mice; 2 nmol intravitreal) | inhibition of endothelial cell migration compared with Sema4D neutralizing antibody (BMA-12, 2 μg/μL) [4] | sSema4D-induced endothelial cell migration [4]
1 | CCCCCCCCCCCCCCCC(=O)NC(Cc1ccccc1)C(=O)N[C@@H](Cc1ccccc1)C(=O)N[C@H](C(=O)N[C@@H](CC(C)C)C(=O)N[C@@H](CCCCN)C(=O)N[C@@H](CCCCN)C(=O)N[C@@H](CCC(N)=O)C(=O)N[C@@H](CCCCN)C(=O)N[C@@H](CCCNC(=N)N)C(=O)N1CCC[C@H]1C(=O)N[C@@H](CCCNC(=N)N)C(=O)N[C@@H](Cc1c[nH]cn1)C(=O)O)C(C)C (stereo in doubt) [FH, hexadecanoyl-FFVLK-KQKRPRH] | can reduce the sSema4D concentration | can still reduce the sSema4D concentration | better than that of FG | reduce the expression of sSema4D protein in the vitreous humor | did not cause toxic effects | reduce the percentage of abnormal blood vessels in the total retinal area | comparable | the best | more effective | significantly inhibit
2 | CCCCCCCCCCCCCCCC(=O)NC(Cc1ccccc1)C(=O)N[C@@H](Cc1ccccc1)C(=O)N[C@H](C(=O)N[C@@H](CC(C)C)C(=O)N[C@@H](CCCCN)C(=O)N[C@@H](CCCCN)C(=O)N[C@@H](CC(N)=O)C(=O)N[C@@H](CCCCN)C(=O)N[C@@H](C)C(=O)N[C@@H](C)C(=O)N[C@@H](CCCCN)C(=O)NCC(=O)O)C(C)C (stereo partly drawn) [FG] (Palmitoyl-[ξF]FVLKKNKAAKG-OH) | can reduce the sSema4D concentration | can still reduce the sSema4D concentration |  | reduce the expression of sSema4D protein in the vitreous humor | did not cause toxic effects | reduce the percentage of abnormal blood vessels in the total retinal area | comparable |  | more effective | significantly inhibit
